Data as given in patent publication US5294611A, “Angiotensin II receptor blocking 2,3,6 substituted quinazolinones” (American Cyanamid Company, priority 1993, dated 1994).
Read-outs that look alike come from different tables or passages of the source.

Tested on: Angiotensin II (AII) vasopressor response
Experiment: AII Challenge: antagonism of angiotensin II vasopressor response in conscious spontaneously hypertensive rats
Format: in vivo, rat (male okamoto-Aoki SHR)
Conditions: for inhibition in vivo at 3 mg/kg / inhibition in vivo at 5 mg/kg: Rattus norvegicus, read-out: Inhibition; for inhibition in vivo at 3 mg/kg: iv; for inhibition in vivo at 3 mg/kg / inhibition in vivo at 5 mg/kg / Average Change: SHR n=2; for inhibition in vivo at 5 mg/kg: po; for Change: single SHR
Summary of the method: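 Conscious male SHR (16–20 weeks, ~330 g) cannulated under local procaine, blood pressure recorded via transducer. Angiotensin II (human) 0.05 and 0.1 ug/kg i.v. given before and after test compound dosed i.v., i.p. or orally; response measured as rise in systolic pressure (mmHg).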

[1] = 3 mg/kg I.V., AII 0.05 mcg/kg IV, 240 min post dose
[2] = 3 mg/kg I.V., AII 0.1 mcg/kg IV, 300 min post dose
[3] = 5 mg/kg P.O., AII 0.1 mcg/kg IV, 300 min post dose

## CCCCc1nc2ccc([C@H]3[C@@H]4C(=O)OC[C@@H]4ON3C)cc2c(=O)n1Cc1ccc(-c2ccccc2-c2nnn[nH]2)cc1 (relative stereo) [Example 53]
0.5 h, 3 mg/kg I.V., AII 0.05 mcg/kg IV, 30 min post dose
  inhibition in vivo at 3 mg/kg: 74%
0.5 h, 3 mg/kg I.V., AII 0.1 mcg/kg IV, 30 min post dose
  inhibition in vivo at 3 mg/kg: 81%
1 h, 3 mg/kg I.V., AII 0.05 mcg/kg IV, 60 min post dose
  inhibition in vivo at 3 mg/kg: 99%
1 h, 3 mg/kg I.V., AII 0.1 mcg/kg IV, 60 min post dose
  inhibition in vivo at 3 mg/kg: 95%
2 h, 3 mg/kg I.V., AII 0.05 mcg/kg IV, 120 min post dose
  inhibition in vivo at 3 mg/kg: 42%
2 h, 3 mg/kg I.V., AII 0.1 mcg/kg IV, 120 min post dose
  inhibition in vivo at 3 mg/kg: 64%
3 h, 3 mg/kg I.V., AII 0.05 mcg/kg IV, 180 min post dose
  inhibition in vivo at 3 mg/kg: 77%
3 h, 3 mg/kg I.V., AII 0.1 mcg/kg IV, 180 min post dose
  inhibition in vivo at 3 mg/kg: 64%
4 h, 3 mg/kg I.V., AII 0.05 mcg/kg IV, 240 min post dose
  inhibition in vivo at 3 mg/kg: 36%
4 h, 3 mg/kg I.V., AII 0.1 mcg/kg IV, 240 min post dose
  inhibition in vivo at 3 mg/kg: 44%
5 h, 3 mg/kg I.V., AII 0.05 mcg/kg IV, 300 min post dose
  inhibition in vivo at 3 mg/kg: 49%
5 h, 3 mg/kg I.V., AII 0.1 mcg/kg IV, 300 min post dose
  inhibition in vivo at 3 mg/kg: 39%
[…], 3 mg/kg I.V., AII 0.05 mcg/kg IV, 90 min post dose
  inhibition in vivo at 3 mg/kg: 68%
[…], 3 mg/kg I.V., AII 0.1 mcg/kg IV, 90 min post dose
  inhibition in vivo at 3 mg/kg: 66%
0.5 h, 5 mg/kg P.O., AII 0.05 mcg/kg IV, 30 min post dose
  inhibition in vivo at 5 mg/kg: 75%
0.5 h, 5 mg/kg P.O., AII 0.1 mcg/kg IV, 30 min post dose
  inhibition in vivo at 5 mg/kg: 59%
1 h, 5 mg/kg P.O., AII 0.05 mcg/kg IV, 60 min post dose
  inhibition in vivo at 5 mg/kg: 81%
1 h, 5 mg/kg P.O., AII 0.1 mcg/kg IV, 60 min post dose
  inhibition in vivo at 5 mg/kg: 53%
2 h, 5 mg/kg P.O., AII 0.05 mcg/kg IV, 120 min post dose
  inhibition in vivo at 5 mg/kg: 98%
2 h, 5 mg/kg P.O., AII 0.1 mcg/kg IV, 120 min post dose
  inhibition in vivo at 5 mg/kg: 74%
3 h, 5 mg/kg P.O., AII 0.05 mcg/kg IV, 180 min post dose
  inhibition in vivo at 5 mg/kg: 96%
3 h, 5 mg/kg P.O., AII 0.1 mcg/kg IV, 180 min post dose
  inhibition in vivo at 5 mg/kg: 79%
4 h, 5 mg/kg P.O., AII 0.05 mcg/kg IV, 240 min post dose
  inhibition in vivo at 5 mg/kg: 69%
4 h, 5 mg/kg P.O., AII 0.1 mcg/kg IV, 240 min post dose
  inhibition in vivo at 5 mg/kg: 71%
5 h, 5 mg/kg P.O., AII 0.05 mcg/kg IV, 300 min post dose
  inhibition in vivo at 5 mg/kg: 84%
5 h, 5 mg/kg P.O., AII 0.1 mcg/kg IV, 300 min post dose
  inhibition in vivo at 5 mg/kg: 53%
[…], 5 mg/kg P.O., AII 0.05 mcg/kg IV, 90 min post dose
  inhibition in vivo at 5 mg/kg: 88%
[…], 5 mg/kg P.O., AII 0.1 mcg/kg IV, 90 min post dose
  inhibition in vivo at 5 mg/kg: 76%
3 mg/kg I.V., AII 0.05 mcg/kg IV, 30 min post dose
  Average Change: 10 mmHg
3 mg/kg I.V., AII 0.05 mcg/kg IV, 60 min post dose
  Average Change: 0.5 mmHg
3 mg/kg I.V., AII 0.05 mcg/kg IV, 90 min post dose
  Average Change: 12.5 mmHg
3 mg/kg I.V., AII 0.05 mcg/kg IV, 120 min post dose
  Average Change: 22.5 mmHg
3 mg/kg I.V., AII 0.05 mcg/kg IV, 180 min post dose
  Average Change: 9 mmHg
[1]
  Average Change: 25 mmHg
  Change: 25 mmHg
3 mg/kg I.V., AII 0.1 mcg/kg IV, 30 min post dose
  Average Change: 9.5 mmHg
3 mg/kg I.V., AII 0.1 mcg/kg IV, 60 min post dose
  Average Change: 2.5 mmHg
3 mg/kg I.V., AII 0.1 mcg/kg IV, 90 min post dose
  Average Change: 16.5 mmHg
3 mg/kg I.V., AII 0.1 mcg/kg IV, 120 min post dose
  Average Change: 17.5 mmHg
3 mg/kg I.V., AII 0.1 mcg/kg IV, 180 min post dose
  Average Change: 17.5 mmHg
3 mg/kg I.V., AII 0.1 mcg/kg IV, 240 min post dose
  Average Change: 27.5 mmHg
[2]
  Average Change: 30 mmHg
  Change: 30 mmHg
5 mg/kg P.O., AII 0.05 mcg/kg IV, 30 min post dose
  Average Change: 10 mmHg
5 mg/kg P.O., AII 0.05 mcg/kg IV, 60 min post dose
  Average Change: 7.5 mmHg
5 mg/kg P.O., AII 0.05 mcg/kg IV, 90 min post dose
  Average Change: 5 mmHg
5 mg/kg P.O., AII 0.05 mcg/kg IV, 120 min post dose
  Average Change: 1 mmHg
5 mg/kg P.O., AII 0.05 mcg/kg IV, 180 min post dose
  Average Change: 1.5 mmHg
5 mg/kg P.O., AII 0.05 mcg/kg IV, 240 min post dose
  Average Change: 12.5 mmHg
5 mg/kg P.O., AII 0.05 mcg/kg IV, 300 min post dose
  Average Change: 6.5 mmHg
5 mg/kg P.O., AII 0.1 mcg/kg IV, 30 min post dose
  Average Change: 17.5 mmHg
5 mg/kg P.O., AII 0.1 mcg/kg IV, 60 min post dose
  Average Change: 20 mmHg
5 mg/kg P.O., AII 0.1 mcg/kg IV, 90 min post dose
  Average Change: 10 mmHg
5 mg/kg P.O., AII 0.1 mcg/kg IV, 120 min post dose
  Average Change: 11 mmHg
5 mg/kg P.O., AII 0.1 mcg/kg IV, 180 min post dose
  Average Change: 9 mmHg
5 mg/kg P.O., AII 0.1 mcg/kg IV, 240 min post dose
  Average Change: 12.5 mmHg
[3]
  Average Change: 20 mmHg
  Change: 20 mmHg
3 mg/kg I.V., AII 0.05 mcg/kg IV, 300 min post dose
  Change: 20 mmHg
